pEC50: −log10 of the molar value. Where two headings read alike, the source gives them in different places.

The values below come from article PMC11672551, “Cyclic Ruthenium-Peptide Prodrugs Penetrate the Blood–Brain Barrier and Attack Glioblastoma upon Light Activation in Orthotopic Zebrafish Tumor Models” (ACS Central Science, 2024).

For data set [1] the following is noted: reference value; cited from earlier work. An excerpt: Table 1 Photochemical Data for Ru-Peptide Conjugates | column: complex
Experiment in data set [2]: not given
The source holds these as a separate data set.

Experiment in data set [3]: not given
This is another data set of the same source.

The subject of data set [4] is U87MG cells. Description: 2D cytotoxicity assay, SRB end point, dark vs green light. In kind it is cell-based, human. Conditions: normoxia (21% O2); for pEC50: SRB at 96 h. The method, then:
To test the in vitro phototoxicity of the three complexes toward 2D monolayer U87MG cells, a cell viability assay was undertaken as follows: the cells were seeded at t = 0, treated at t = 24 h, irradiated with green light (520 nm, 13.1 J cm^–2) at t = 48 h without refreshing the medium (drug-to-light interval = 24 h), further incubated in the dark for 48 h, and counted at t = 96 h with a sulforhodamine B (SRB) cell quantification end point assay.[45] Half-maximal effective concentrations (EC50 in μM), compared to untreated control, and photoindex (PI) values, defined as EC50,dark/ EC50,light, were calculated to characterize the toxicity and light activation of each Ru-peptide conjugate. […] However, a much stronger discrepancy appeared in the 2D toxicity data in hypoxic conditions (Table 2, Figure S22b). The phototherapeutic properties of Ru-p(HH) in the green light group were the poorest, leading to a PI of only 1.3. […] Ru-p(MH) stood somewhere between these values with a PI of 1.9 under hypoxia. […] The loss of activity of Ru-p(HH) under hypoxia is consistent with the hypothesis of a PDT pathway, while Ru-p(MM) keeping appreciable phototoxicity under hypoxia better fits the hypothesis of a PACT cell-killing mechanism.
U87MG cells (6000) were seeded in 96-well plates (Sarstedt, 83.3924), and each well contained 100 μL of Opti-MEM (Gibco complete medium 11058-021, supplemented with 2.5% v/v fetal calf serum (FCS), 0.2% v/v penicillin/streptomycin (P/S), and 1% v/v glutamine). They were then placed either in a normoxic (21% O2) or hypoxic (1.0% O2) incubator; 24 h later, different concentrations of Ru-p(HH), Ru-p(MH), or Ru-p(MM) dissolved in Opti-MEM (100 μL) were added to the wells in triplicate. For each complex, one dark and one light plate were involved. Each plate was further incubated in the dark for 24 h (DLI). After that, one plate was irradiated with green light (520 nm) for 20 min at 37 °C for normoxia (dose = 13.1 J cm^–2) or 30 min for hypoxia (dose = 13.0 J cm^–2), while the other plate was kept in the dark. The cells were further incubated for another 2 days in normoxic or hypoxic conditions, respectively. Finally, 100 μL of cold trichloroacetic acid (10% w/v) was added to each well to fix the cells, and all plates were then transferred to a 4 °C refrigerator for 48 h before an SRB cell quantification end point assay was performed.[45] All experiments were conducted in biologically independent triplicate.
Hypoxic cell models in vitro: all cells were incubated and passaged in a dark hypoxic incubator (1% O2) for at least 2 weeks before all hypoxia studies. Adding chemicals to the cells had to be performed in air; however, the cell-growing medium was kept in the hypoxia incubator for at least 2 days before the addition to hypoxic cells, and all hypoxic light irradiations were performed inside the hypoxic incubator set at 1.0% O2.

Data set [5] concerns U87MG cells. The experiment in a line: Intracellular ROS generation, CellROX Deep Red, flow cytometry. The data set is classed as cell-based, human. Conditions: 15 μM, 24 h, green light 515 nm, 13.1 J cm–2, normoxia, n = 2. The method, then: Figure 3 Light activation mechanism in cells treated with Ru-peptide conjugates. (a) Emission intensity of cells treated with Ru-p(HH), Ru-p(MH), or Ru-p(MM) (15 μM, 24 h) and irradiated with green light (520 nm, 13.1 J cm^–2) for different times: 0–1200 s, as determined by flow cytometry using a PC5.5 filter (ex/em = 488/650 ± 50 nm). (b) Intracellular ROS generation assay in normoxic (N) and hypoxic (H) U87MG cells according to FACS analysis using nonselective ROS probe CellROX Deep Red Reagent, after treatment with Ru-p(HH), Ru-p(MH), Ru-p(MM), cisplatin, Rose Bengal, or [Ru(Ph2phen)2Cl2] (labeled as Ru-Cl2) (15 μM, 24 h), in the dark and after light irradiation (515 nm, 13.1 J cm^–2). tBHP (250 μM, 1 h) was used as a positive control for ROS generation. Error bars: SEM, n = 2. (c) Slopes of the UV–vis absorption of AMDA (for ^1O2, blue bars) or emission intensity of DHE (for O2^•–, red bars) vs irradiation time (see Figures S26–S28) after being incubated with Ru-p(HH), Ru-p(MH), Ru-p(MM), Ru-Cl2, or Rose Bengal (20 μM) and irradiated with green light in Opti-MEM solution. (d) Percentage of alive (−/−), early apoptotic (−/+), late apoptotic (+/+) and necrotic (+/−) U87MG cells costained with Apopxin Deep Red Indicator and Nuclear Green DCS1 as quantified by flow cytometry, after treatment with Ru-p(HH), Ru-p(MH), Ru-p(MM), cisplatin or Rose Bengal in the dark (D) and after light irradiation (L, DLI = 24 h, 515 nm, 13.1 J cm^–2); drug concentration: 20 μM, DLI = 24 h).
Second, CellROX Deep Red, a nonspecific molecular probe for ROS formation, was used to quantify the photodynamic behaviors by each of the three complexes in U87MG cells,.[22] […]
The generation of ROS (reactive oxygen species) in U87MG cells was measured using a ROS deep red fluorescence indicator (Abcam, ab186029). […] The levels of intracellular ROS were then determined using a CytoFLEX flow cytometer using the APC-A (638 nm excitation, 660/10 nm emission) channel. […]
(In general: Flow cytometry measures light scatter and fluorescence of single cells or particles in a stream.)

As for `[Cl][Ru][Cl].c1ccc(-c2ccccn2)nc1.c1ccc(-c2ccccn2)nc1.c1ccc(-c2ccccn2)nc1` [[Ru(bpy)3]Cl2], the “ΦΔ ref, singlet oxygen quantum yield of the reference” value in data set [1] was 73%.

For Ac-HRGDH-NH2, the λem worked out at 658 nm. Further, the λmax in data set [2] amounted to 500 nm.

On to Ac-MRGDM-NH2, for which the λem is 700 nm. In data set [2], this compound had a λmax of 400 nm. Also, the relative emission intensity compared to Ru-p(HH) in data set [3] is 0.2%.

A word on the pEC50: it is the negative decadic logarithm of the EC50, by convention in mol/L. In the case of [Ru(Ph2phen)2Cl2], the “PI, photoindex EC50,dark/EC50,light” value with U87MG cells [4] was determined as 7.2. The pEC50 is 6.70 with U87MG cells [4] (520 nm, 10.9 mW cm–2, 13.1 J cm–2, 20 min, DLI 24 h, n = 3, read-out: EC50, green light) and 5.84 with U87MG cells [4] (light dose 0, 24 h treatment, no wash, n = 3, read-out: EC50, dark). Besides, in the data set on U87MG cells [5], the “intracellular ROS production, normoxia” value is given as “able to generate ROS in cells”.

In turn, Ac-MRGDH-NH2 had a λem of 700 nm. This compound also showed a λmax in data set [2] of 465 nm. In addition, in data set [3], the relative emission intensity compared to Ru-p(HH) was determined as 2%.

On to `N.N.[Cl][Pt][Cl]` [cisplatin], for which the “intracellular ROS production, normoxia” value in the data set with U87MG cells [5] is “barely showed any ROS formation”.

`O=C([O-])c1c(Cl)c(Cl)c(Cl)c(Cl)c1-c1c2cc(I)c(=O)c(I)c-2oc2c(I)c([O-])c(I)cc12.[Na+].[Na+]` [Rose Bengal]: the “intracellular ROS production, normoxia” value in the data set with U87MG cells [5] is “high amount of ROS”.
